Measurements reported in US20080182811A1, “METABOTROPIC GLUTAMATE RECEPTOR ACTIVATOR” (Ajinomoto Co., Inc., priority 2005, published 2008).
Values belong to the molecule of their own block, whether it stands above or below them.

How the values were obtained:
[1] = biological target: T1, group II metabotropic glutamate receptor subtype 3 (mGluR3) (Homo sapiens, UniProt Q14832); assay: Electrophysiological measurement of response current in Xenopus oocytes injected with mGluR3, GIRK1 and GIRK4 cRNAs; type: cell-based; details: for mgluR3 (receptor activation by amino acid): amino acid alone, 1 mM, oocytes injected with mGluR3, GIRK1, GIRK4 cRNAs; for effect of amino acid (response current value) with cation vs amino acid alone: coexistence with calcium ion (10 mM), FIG. 7; for effect of amino acid (response current value) with cation vs amino acid alone / effect of amino acid (response current value) with nucleic acid and cation vs amino acid alone / effect of amino acid (response current value) with nucleic acid vs amino acid alone: glutamic acid 3 μM, aspartic acid 300 μM, leucine 1 mM; for effect of amino acid (response current value) with cation vs amino acid alone / effect of amino acid (response current value) with nucleic acid and cation vs amino acid alone: cysteine 1 mM; for effect of amino acid (response current value) with nucleic acid and cation vs amino acid alone: coexistence with inosinic acid (1 mM) and calcium ion (10 mM), FIG. 8; for effect of amino acid (response current value) with nucleic acid vs amino acid alone: coexistence with inosinic acid (1 mM), valine 1 mM, FIG. 6
T1 construct: expressed in transfected cells; host or cells: Xenopus oocytes injected with cRNAs of mGluR3, GIRK1 and GIRK4

[2] = biological target: T2, group I metabotropic glutamate receptor subtype 5 (mGluR5) (Homo sapiens, UniProt P41594); assay: Electrophysiological measurement of response current in Xenopus oocytes injected with mGluR5 cRNA; type: cell-based; details: aspartic acid 300 μM, valine 3 mM; for mGluR5 (receptor activation by amino acid): amino acid alone, others 10 mM, oocytes injected with mGluR5 cRNA; for mGluR5 (receptor activation by amino acid) / effect of amino acid (response current value) with nucleic acid and cation vs amino acid alone: cysteine 1 mM; for effect of amino acid (response current value) with nucleic acid and cation vs amino acid alone: coexistence with both inosinic acid (1 mM) and calcium ion (10 mM), FIG. 4; for effect of amino acid (response current value) with nucleic acid and cation vs amino acid alone / effect of amino acid (response current value) with cation vs amino acid alone / effect of amino acid (response current value) with nucleic acid vs amino acid alone: glutamic acid 3 μM; for effect of amino acid (response current value) with cation vs amino acid alone: coexistence with calcium ion (10 mM), FIG. 3; for effect of amino acid (response current value) with cation vs amino acid alone / effect of amino acid (response current value) with nucleic acid vs amino acid alone: cysteine 3 mM; for effect of amino acid (response current value) with nucleic acid vs amino acid alone: coexistence with inosinic acid (1 mM), FIG. 2
T2 construct: expressed in transfected cells; host or cells: Xenopus oocytes injected with cRNA
From the text: A metabotropic glutamate receptor subtype 5 (mGluR5) was used as a group I metabotropic glutamate receptor. A metabotropic glutamate receptor subtype 3 (mGluR3) was used as a representative of group II metabotropic glutamate receptors. A metabotropic glutamate receptor subtype 8 (mGluR8) was used as a representative of group III metabotropic glutamate receptors. The genes of the three metabotropic glutamate receptors, G-protein-gated inward rectifier K channel 1 (GIRK1), and G-protein-gated inward rectifier K channel 4 (GIRK4) were prepared as follows.
PCR was performed using a cDNA derived from the human brain (manufactured by Clontech) as a material and using Pfu ultra DNA Polymerase (manufactured by Stratagene) under the following conditions. After a 3-minute reaction at 94° C., a cycle of 94° C./30 seconds, 55° C./30 seconds, and 72° C./2 minutes was repeated 35 times, followed by a 7-minute reaction at 72° C. Amplified PCR products were subjected to agarose gel electrophoresis, stained with a DNA staining reagent and detected by UV irradiation. The lengths of the PCR products were confirmed by comparing the lengths with a DNA marker having a known size, which was electrophoresed simultaneously with the PCR products. A plasmid vector pBR322 was cleaved with a restriction enzyme EcoRV (manufactured by TAKARA BIO INC.). The respective gene fragments amplified by PCR were ligated to the cleaved site using Ligation Kit (manufactured by Promega). Escherichia coli DH5a strain was transformed with the reaction solution, and transformants carrying plasmids where the PCR products were cloned were selected. The PCR amplified products were identified by DNA sequence analysis. The recombinant plasmids were used as a template to prepare cRNA of each of the receptor genes using a cRNA preparation kit (Ambion, Inc.).
Special grade reagents of twenty-three L-amino acids including alanine, arginine, asparagine, aspartic acid, cysteine, glutamine, glutamic acid, glycine, histidine, isoleucine, leucine, lysine, methionine, phenylalanine, proline, serine, threonine, tryptophan, tyrosine, valine, ornithine, taurine, and hydroxyproline were used. Special grade reagents of inosine and calcium chloride were used. Glutamine and cysteine were prepared every time before use, and the other reagents were prepared and stored at −20° C. A solution for dissolving amino acids, nucleic acids, and cations, a solution for preparing Xenopus oocytes, and a solution for culturing Xenopus oocytes have the following composition. NaCl 96 mM/KCl 2 mM/MgCl2 1 mM/CaCl2 1.8 mM/Hepes 5 mM/pH 7.2.
Ca ion concentration-dependent Cl ion current measurement method using a Xenopus oocyte expression system was used as a method of measuring the signaling via a metabotropic glutamate receptor. The abdomen of a Xenopus were incised, and the egg mass was removed and treated with a 1% collagenase solution at 20° C. for 2 hours, to thereby obtain individual oocytes. To one oocyte was introduced 50 nl of 1 μg/μl receptor cRNA or 50 nl of distilled water using a microcapillary, followed by culture at 18° C. for 2 or 3 days. This culture was performed using a solution obtained by adding 2 mM pyruvic acid, 10 U/ml penicillin, and 10 μg/ml streptomycin to the solution shown in Example 2. After completion of culture, a ligand solution was added to oocytes injected with the cRNA and oocytes injected with distilled water, respectively. Electrophysiological measurement was performed using an amplifier Geneclamp 500 (manufactured by Axon Instruments, Inc.) and recording software AxoScope 9.0 (manufactured by Axon Instruments, Inc.). The oocytes were subjected to membrane potential fixation at −70 mV by a two-electrode membrane potential fixation method, and intracellular currents via Ca ion concentration-dependent Cl ion were measured. The maximal value of the intracellular currents was defined as a response current value.

T2 sequence (P41594 21-1180 isoform P41594-2 limits assumed): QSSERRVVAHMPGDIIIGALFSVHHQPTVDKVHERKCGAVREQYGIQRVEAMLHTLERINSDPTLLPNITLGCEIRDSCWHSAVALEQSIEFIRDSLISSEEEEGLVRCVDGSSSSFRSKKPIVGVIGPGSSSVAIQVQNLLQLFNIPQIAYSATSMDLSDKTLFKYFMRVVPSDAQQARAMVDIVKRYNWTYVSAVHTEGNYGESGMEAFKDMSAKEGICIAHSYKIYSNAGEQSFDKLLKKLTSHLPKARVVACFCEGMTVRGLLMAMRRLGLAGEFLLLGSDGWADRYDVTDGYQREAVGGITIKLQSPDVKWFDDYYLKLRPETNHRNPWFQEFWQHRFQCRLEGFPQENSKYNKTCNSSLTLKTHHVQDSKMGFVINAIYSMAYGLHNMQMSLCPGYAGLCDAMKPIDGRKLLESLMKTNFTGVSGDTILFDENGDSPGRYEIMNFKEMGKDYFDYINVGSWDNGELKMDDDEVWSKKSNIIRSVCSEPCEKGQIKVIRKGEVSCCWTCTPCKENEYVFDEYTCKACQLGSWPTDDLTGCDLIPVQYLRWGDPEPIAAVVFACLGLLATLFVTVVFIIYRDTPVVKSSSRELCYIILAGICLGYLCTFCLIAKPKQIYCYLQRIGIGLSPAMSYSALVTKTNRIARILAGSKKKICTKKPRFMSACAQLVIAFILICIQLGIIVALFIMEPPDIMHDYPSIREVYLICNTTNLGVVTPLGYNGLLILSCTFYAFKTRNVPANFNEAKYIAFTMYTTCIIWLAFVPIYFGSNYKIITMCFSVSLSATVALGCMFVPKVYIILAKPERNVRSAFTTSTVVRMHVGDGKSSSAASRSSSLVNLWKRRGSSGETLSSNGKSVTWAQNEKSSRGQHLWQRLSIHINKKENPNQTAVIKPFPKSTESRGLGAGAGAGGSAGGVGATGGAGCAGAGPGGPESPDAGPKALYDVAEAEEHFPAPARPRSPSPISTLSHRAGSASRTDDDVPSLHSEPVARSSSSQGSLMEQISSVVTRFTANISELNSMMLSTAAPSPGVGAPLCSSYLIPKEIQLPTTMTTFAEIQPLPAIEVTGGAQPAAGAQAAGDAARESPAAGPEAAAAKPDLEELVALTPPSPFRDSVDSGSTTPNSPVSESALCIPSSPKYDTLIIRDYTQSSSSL
T1 sequence (Q14832 23-879): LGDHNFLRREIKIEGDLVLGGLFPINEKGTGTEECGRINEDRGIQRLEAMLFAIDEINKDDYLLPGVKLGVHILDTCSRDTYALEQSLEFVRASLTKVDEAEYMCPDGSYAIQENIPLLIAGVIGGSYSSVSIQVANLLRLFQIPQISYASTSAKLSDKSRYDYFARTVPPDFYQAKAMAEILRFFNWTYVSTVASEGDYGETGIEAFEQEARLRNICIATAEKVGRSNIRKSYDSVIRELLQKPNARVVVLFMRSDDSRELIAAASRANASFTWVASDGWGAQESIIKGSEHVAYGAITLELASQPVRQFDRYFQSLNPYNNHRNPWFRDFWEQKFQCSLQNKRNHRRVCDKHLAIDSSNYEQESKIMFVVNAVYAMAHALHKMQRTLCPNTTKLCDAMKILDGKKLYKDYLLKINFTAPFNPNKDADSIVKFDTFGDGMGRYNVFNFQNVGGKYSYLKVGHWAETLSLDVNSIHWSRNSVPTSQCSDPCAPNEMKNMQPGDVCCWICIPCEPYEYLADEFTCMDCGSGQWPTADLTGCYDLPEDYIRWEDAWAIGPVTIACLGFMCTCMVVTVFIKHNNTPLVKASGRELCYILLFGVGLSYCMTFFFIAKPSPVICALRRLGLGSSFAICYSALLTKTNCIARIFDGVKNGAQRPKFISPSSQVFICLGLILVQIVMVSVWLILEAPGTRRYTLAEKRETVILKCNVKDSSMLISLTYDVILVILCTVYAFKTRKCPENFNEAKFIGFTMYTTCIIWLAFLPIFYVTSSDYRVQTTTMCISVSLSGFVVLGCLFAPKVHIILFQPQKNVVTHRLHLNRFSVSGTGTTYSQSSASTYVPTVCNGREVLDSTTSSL

mgluR3 (receptor activation by amino acid) [1]: Activated
mgluR3 (receptor activation by amino acid) ([1]; listed as threonine): effects of enhancing the activation
SMILES: C[C@@H](O)[C@H](N)C(=O)O [Threonine, threonine]

mgluR3 (receptor activation by amino acid) [1]: Activated
mgluR3 (receptor activation by amino acid) ([1]; listed as leucine): effects of enhancing the activation
effect of amino acid (response current value) with cation vs amino acid alone [1]: enhanced
effect of amino acid (response current value) with nucleic acid and cation vs amino acid alone [1]: enhanced
effect of amino acid (response current value) with nucleic acid vs amino acid alone [1]: enhanced
SMILES: CC(C)C[C@H](N)C(=O)O [Leucine, leucine]

mgluR3 (receptor activation by amino acid) [1]: Activated
mgluR3 (receptor activation by amino acid) ([1]; listed as serine): effects of enhancing the activation
SMILES: N[C@@H](CO)C(=O)O [Serine, serine]

mgluR3 (receptor activation by amino acid) [1]: Activated
mgluR3 (receptor activation by amino acid) ([1]; listed as histidine): effects of enhancing the activation
SMILES: N[C@@H](Cc1c[nH]cn1)C(=O)O [Histidine, histidine]

mgluR3 (receptor activation by amino acid) [1]: Activated
mgluR3 (receptor activation by amino acid) ([1]; listed as isoleucine): effects of enhancing the activation
SMILES: CC[C@H](C)[C@H](N)C(=O)O [Isoleucine, isoleucine]

SMILES: O=C(O)[C@@H]1C[C@@H](O)CN1 [Hydroxyproline, hydroxyproline]
mgluR3 (receptor activation by amino acid) [1]: Activated
mgluR3 (receptor activation by amino acid) ([1]; listed as hydroxyproline): effects of enhancing the activation

mgluR3 (receptor activation by amino acid) [1]: Activated
mgluR3 (receptor activation by amino acid) ([1]; listed as valine): effects of enhancing the activation
effect of amino acid (response current value) with nucleic acid vs amino acid alone [1]: enhanced
mGluR5 (receptor activation by amino acid) [2]: Activated
mGluR5 (receptor activation by amino acid) ([2]; listed as valine): effects of enhancing
effect of amino acid (response current value) with nucleic acid and cation vs amino acid alone [2]: enhanced
effect of amino acid (response current value) with cation vs amino acid alone [2]: enhanced
effect of amino acid (response current value) with nucleic acid vs amino acid alone [2]: enhanced
SMILES: CC(C)[C@H](N)C(=O)O [Valine, valine]

mgluR3 (receptor activation by amino acid) [1]: Activated
mgluR3 (receptor activation by amino acid) ([1]; listed as tyrosine): effects of enhancing the activation
SMILES: N[C@@H](Cc1ccc(O)cc1)C(=O)O [Tyrosine, tyrosine]

mgluR3 (receptor activation by amino acid) [1]: Activated
mgluR3 (receptor activation by amino acid) ([1]; listed as alanine): effects of enhancing the activation
SMILES: C[C@H](N)C(=O)O [Alanine, alanine]

mgluR3 (receptor activation by amino acid) [1]: Activated
mgluR3 (receptor activation by amino acid) ([1]; listed as lysine): effects of enhancing the activation
SMILES: NCCCC[C@H](N)C(=O)O [Lysine, lysine]

mgluR3 (receptor activation by amino acid) [1]: Activated
mgluR3 (receptor activation by amino acid) ([1]; listed as phenylalanine): effects of enhancing the activation
SMILES: N[C@@H](Cc1ccccc1)C(=O)O [Phenylalanine, phenylalanine]

mgluR3 (receptor activation by amino acid) [1]: Activated
mgluR3 (receptor activation by amino acid) ([1]; listed as glycine): effects of enhancing the activation
SMILES: NCC(=O)O [Glycine, glycine]

mgluR3 (receptor activation by amino acid) [1]: Activated
mgluR3 (receptor activation by amino acid) ([1]; listed as aspartic acid): effects of enhancing the activation
effect of amino acid (response current value) with cation vs amino acid alone [1]: enhanced
effect of amino acid (response current value) with nucleic acid and cation vs amino acid alone [1]: enhanced
effect of amino acid (response current value) with nucleic acid vs amino acid alone [1]: enhanced
mGluR5 (receptor activation by amino acid) [2]: Activated
mGluR5 (receptor activation by amino acid) ([2]; listed as aspartic acid): effects of enhancing
effect of amino acid (response current value) with nucleic acid and cation vs amino acid alone [2]: enhanced
effect of amino acid (response current value) with cation vs amino acid alone [2]: enhanced
effect of amino acid (response current value) with nucleic acid vs amino acid alone [2]: enhanced
SMILES: N[C@@H](CC(=O)O)C(=O)O [Aspartic acid, aspartic acid]

mgluR3 (receptor activation by amino acid) [1]: Activated
mgluR3 (receptor activation by amino acid) ([1]; listed as glutamine): effects of enhancing the activation
SMILES: NC(=O)CC[C@H](N)C(=O)O [Glutamine, glutamine]

SMILES: N=C(N)NCCC[C@H](N)C(=O)O [Arginine, arginine]
mgluR3 (receptor activation by amino acid) [1]: Activated
mgluR3 (receptor activation by amino acid) ([1]; listed as arginine): effects of enhancing the activation

mgluR3 (receptor activation by amino acid) [1]: Activated
mgluR3 (receptor activation by amino acid) ([1]; listed as proline): effects of enhancing the activation
SMILES: O=C(O)[C@@H]1CCCN1 [Proline, proline]

mgluR3 (receptor activation by amino acid) [1]: Activated
mgluR3 (receptor activation by amino acid) ([1]; listed as methionine): effects of enhancing the activation
SMILES: CSCC[C@H](N)C(=O)O [Methionine, methionine]

mgluR3 (receptor activation by amino acid) [1]: Activated
mgluR3 (receptor activation by amino acid) ([1]; listed as asparagine): effects of enhancing the activation
SMILES: NC(=O)C[C@H](N)C(=O)O [Asparagine, asparagine]

mgluR3 (receptor activation by amino acid) [1]: Activated
mgluR3 (receptor activation by amino acid) ([1]; listed as tryptophan): effects of enhancing the activation
SMILES: N[C@@H](Cc1c[nH]c2ccccc12)C(=O)O [Tryptophan, tryptophan]

mgluR3 (receptor activation by amino acid) [1]: Activated
mgluR3 (receptor activation by amino acid) ([1]; listed as ornithine): effects of enhancing the activation
SMILES: NCCC[C@H](N)C(=O)O [Ornithine, ornithine]

mgluR3 (receptor activation by amino acid) [1]: Activated
mgluR3 (receptor activation by amino acid) ([1]; listed as taurine): effects of enhancing the activation
SMILES: NCCS(=O)(=O)O [Taurine, taurine]
